Columns and labels:
[1] = First-in-human study, multiple ascending dose; format: in vivo; settings: for half-life: human, plasma, oral
CYP3A4 [2] = format: in vitro ADME, human; settings: up to 10 µM
UGT1A3 = biological target: T1, UGT1A3 (Homo sapiens, UniProt P35503); experiment: Phase 2 enzyme substrate assessment; format: in vitro ADME
T1 sequence (P35503 29-534): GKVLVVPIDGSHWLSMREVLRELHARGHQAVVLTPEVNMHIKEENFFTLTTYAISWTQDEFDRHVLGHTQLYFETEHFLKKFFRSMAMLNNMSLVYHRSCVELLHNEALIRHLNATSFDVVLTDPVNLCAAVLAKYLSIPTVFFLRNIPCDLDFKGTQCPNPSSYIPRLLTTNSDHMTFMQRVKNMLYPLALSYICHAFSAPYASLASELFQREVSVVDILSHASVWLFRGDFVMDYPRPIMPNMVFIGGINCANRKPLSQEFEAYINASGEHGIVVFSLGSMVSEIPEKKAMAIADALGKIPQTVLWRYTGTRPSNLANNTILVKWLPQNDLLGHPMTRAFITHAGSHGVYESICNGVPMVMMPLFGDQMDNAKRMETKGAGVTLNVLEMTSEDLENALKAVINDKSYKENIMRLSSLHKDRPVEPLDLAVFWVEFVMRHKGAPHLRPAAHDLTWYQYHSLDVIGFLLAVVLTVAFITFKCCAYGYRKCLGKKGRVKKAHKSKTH

CYP3A4 [3] = settings: miricorilant 400 mg once daily as perpetrator
CYP2B6 = format: in vitro ADME, human; settings: up to 10 µM, three donors
CYP2C9 [4] = biological target: T2, CYP2C9 (Homo sapiens, UniProt P11712); experiment: DDI perpetrator study: tolbutamide probe; format: in vivo; settings: miricorilant 400 mg once daily as perpetrator
T2 sequence (P11712 whole entry): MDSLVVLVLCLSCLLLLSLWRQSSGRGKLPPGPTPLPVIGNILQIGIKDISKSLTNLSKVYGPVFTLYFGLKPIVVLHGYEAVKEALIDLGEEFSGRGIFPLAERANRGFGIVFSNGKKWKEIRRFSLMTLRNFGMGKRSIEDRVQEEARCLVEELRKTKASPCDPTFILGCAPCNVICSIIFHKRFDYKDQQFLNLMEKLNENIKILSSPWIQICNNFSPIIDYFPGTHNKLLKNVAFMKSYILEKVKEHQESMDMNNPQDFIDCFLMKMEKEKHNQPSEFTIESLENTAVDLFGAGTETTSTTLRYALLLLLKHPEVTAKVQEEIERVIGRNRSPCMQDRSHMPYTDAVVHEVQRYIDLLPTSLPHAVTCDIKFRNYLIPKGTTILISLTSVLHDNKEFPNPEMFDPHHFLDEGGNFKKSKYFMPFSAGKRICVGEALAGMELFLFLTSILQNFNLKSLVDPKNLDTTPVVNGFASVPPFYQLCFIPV

MDR1/P-gp = MDR1/P-gp (Homo sapiens, UniProt P08183); experiment: Transporter substrate assessment; format: in vitro ADME
MDR1/P-gp, sequence (P08183 whole entry): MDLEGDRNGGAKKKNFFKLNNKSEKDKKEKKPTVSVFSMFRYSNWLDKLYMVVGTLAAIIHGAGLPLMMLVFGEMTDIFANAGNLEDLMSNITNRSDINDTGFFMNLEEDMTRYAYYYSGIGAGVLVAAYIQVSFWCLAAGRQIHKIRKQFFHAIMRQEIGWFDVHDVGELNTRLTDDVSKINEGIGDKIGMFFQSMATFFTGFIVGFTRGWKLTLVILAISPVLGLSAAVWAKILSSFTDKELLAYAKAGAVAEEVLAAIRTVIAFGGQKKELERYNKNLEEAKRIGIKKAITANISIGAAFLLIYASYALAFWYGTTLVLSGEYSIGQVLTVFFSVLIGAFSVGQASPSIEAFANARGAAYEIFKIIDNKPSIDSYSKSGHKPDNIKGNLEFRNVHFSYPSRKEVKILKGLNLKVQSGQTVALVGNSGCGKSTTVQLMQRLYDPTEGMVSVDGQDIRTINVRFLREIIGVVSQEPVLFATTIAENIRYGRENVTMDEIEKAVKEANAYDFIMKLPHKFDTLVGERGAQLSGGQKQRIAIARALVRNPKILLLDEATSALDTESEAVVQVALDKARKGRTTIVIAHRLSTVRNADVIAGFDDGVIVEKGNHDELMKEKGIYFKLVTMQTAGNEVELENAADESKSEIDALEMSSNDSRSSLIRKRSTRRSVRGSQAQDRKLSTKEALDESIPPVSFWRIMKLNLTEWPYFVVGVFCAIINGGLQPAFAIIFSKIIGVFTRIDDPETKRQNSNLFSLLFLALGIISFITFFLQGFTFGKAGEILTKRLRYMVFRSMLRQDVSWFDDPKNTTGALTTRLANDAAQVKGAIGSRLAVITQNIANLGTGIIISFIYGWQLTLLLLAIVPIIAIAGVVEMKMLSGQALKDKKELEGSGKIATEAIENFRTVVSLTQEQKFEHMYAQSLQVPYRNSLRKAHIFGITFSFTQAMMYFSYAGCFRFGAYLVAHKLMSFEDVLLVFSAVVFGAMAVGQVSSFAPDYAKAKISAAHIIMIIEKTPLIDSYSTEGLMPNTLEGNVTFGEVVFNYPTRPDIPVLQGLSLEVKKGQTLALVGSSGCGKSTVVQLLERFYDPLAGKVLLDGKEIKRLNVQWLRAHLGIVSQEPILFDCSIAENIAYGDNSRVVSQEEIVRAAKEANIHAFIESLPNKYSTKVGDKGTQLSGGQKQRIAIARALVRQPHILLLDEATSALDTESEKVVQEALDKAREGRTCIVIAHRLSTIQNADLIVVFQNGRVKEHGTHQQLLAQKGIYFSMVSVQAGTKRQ

[5] = Animal and human ADME studies, summary of excretion; format: in vivo; settings: animal and human ADME studies (Abstract)
fatty liver disease = settings: cited from earlier work
UGT1A1 [6] = biological target: T3, UGT1A1 (Homo sapiens, UniProt P22309); experiment: Phase 2 enzyme inhibition; format: in vitro ADME
T3 sequence (P22309 26-533): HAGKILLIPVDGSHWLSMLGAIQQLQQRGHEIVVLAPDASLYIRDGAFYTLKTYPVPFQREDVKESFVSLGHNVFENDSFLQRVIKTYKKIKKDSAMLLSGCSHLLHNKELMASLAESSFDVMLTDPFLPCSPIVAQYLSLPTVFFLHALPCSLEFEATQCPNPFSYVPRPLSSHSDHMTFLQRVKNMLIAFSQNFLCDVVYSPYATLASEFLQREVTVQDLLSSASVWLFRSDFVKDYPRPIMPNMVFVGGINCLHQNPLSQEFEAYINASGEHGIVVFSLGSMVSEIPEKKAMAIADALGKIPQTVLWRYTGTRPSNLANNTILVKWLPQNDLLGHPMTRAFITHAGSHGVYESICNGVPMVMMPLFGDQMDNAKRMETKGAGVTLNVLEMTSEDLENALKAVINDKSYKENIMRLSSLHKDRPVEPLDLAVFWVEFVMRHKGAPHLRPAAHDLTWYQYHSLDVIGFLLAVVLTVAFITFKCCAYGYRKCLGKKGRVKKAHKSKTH

UGT1A1 [7] = biological target: T3, UGT1A1; experiment: Phase 2 enzyme substrate assessment; format: in vitro ADME
CYP2C9 [8] = biological target: T2, CYP2C9; experiment: Cytochrome P450 inhibition; format: in vitro ADME
CYP3A5 = CYP3A5 (Homo sapiens, UniProt P20815); experiment: Cytochrome P450 inhibition; format: in vitro ADME
CYP3A5, sequence (P20815 whole entry): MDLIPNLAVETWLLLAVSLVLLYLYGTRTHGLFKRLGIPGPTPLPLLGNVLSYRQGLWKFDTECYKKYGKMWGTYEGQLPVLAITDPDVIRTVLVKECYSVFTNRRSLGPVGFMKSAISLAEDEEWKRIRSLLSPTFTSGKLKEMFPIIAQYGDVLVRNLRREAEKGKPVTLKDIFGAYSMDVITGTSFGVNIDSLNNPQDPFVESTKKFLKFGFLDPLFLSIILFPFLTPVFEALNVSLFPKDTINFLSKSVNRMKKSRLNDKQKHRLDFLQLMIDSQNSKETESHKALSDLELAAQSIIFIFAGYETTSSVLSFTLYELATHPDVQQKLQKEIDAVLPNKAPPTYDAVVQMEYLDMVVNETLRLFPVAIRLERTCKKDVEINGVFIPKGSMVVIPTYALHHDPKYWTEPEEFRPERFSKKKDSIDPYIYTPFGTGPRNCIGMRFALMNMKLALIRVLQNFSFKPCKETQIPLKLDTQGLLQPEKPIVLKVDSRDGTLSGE

CYP2C8 = biological target: T4, CYP2C8 (Homo sapiens, UniProt P10632); experiment: DDI perpetrator study: repaglinide probe; format: in vivo; settings: miricorilant 400 mg once daily as perpetrator
T4 sequence (P10632 1-490): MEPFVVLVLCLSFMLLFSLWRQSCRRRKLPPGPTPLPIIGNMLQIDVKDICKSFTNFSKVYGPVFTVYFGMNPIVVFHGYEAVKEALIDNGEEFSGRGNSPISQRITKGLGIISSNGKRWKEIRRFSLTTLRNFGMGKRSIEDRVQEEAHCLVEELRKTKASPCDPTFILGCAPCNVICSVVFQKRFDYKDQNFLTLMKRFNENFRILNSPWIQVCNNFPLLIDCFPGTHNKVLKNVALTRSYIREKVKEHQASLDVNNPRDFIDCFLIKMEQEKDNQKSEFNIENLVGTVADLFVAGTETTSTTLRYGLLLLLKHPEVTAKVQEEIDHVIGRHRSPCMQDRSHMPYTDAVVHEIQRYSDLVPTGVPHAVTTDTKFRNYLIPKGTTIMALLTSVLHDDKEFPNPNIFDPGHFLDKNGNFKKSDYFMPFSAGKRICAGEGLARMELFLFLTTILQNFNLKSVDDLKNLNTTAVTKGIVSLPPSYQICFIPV

[9] = First-in-human study, single ascending dose; format: in vivo

O=c1[nH]c(=O)c(Cc2cccc(C(F)(F)F)c2)c([C@H]2CC[C@H](c3ccccc3)CC2)[nH]1 [miricorilant]
average increase in Cmax and AUC0‐last per doubling of the dose ([1]; 150, 450, 900 mg once daily, day 1): 1.92 fold | half-life [1]: ~20 h | half-life ([1]; 150 mg): 21.6 h | half-life ([1]; 450 mg): 21.2 h | half-life ([1]; 900 mg): 19.4 h | accumulation ratio for Cmax ([1]; repeated daily dosing (Discussion/Conclusions)): ≈ 1.5 fold | highest observed CYP3A4 induction (CYP3A4 [2]; one of three donors, concentration-dependent): 6.5 fold | CYP3A4 induction (CYP3A4 [2]; two of three donors): no indication of CYP3A4 induction | Substrate of UGT1A3 (UGT1A3): not a substrate | clinical inhibition of CYP3A4 (CYP3A4 [3]): does not inhibit | induction of CYP2B6 (CYP2B6): no induction | clinical inhibition of CYP2C9 (CYP2C9 [4]): does not inhibit | Substrate of MDR1/P-gp (MDR1/P-gp): not a substrate | total radioactivity recovered in urine [5]: < 5% | efficacy in mouse models of fatty liver disease (fatty liver disease): shown efficacy | IC50 (UGT1A1 [6]): 1.4 µM | Substrate of UGT1A1 (UGT1A1 [7]): not a substrate | IC50 (CYP2C9 [8]): 7.7 µM | time dependence of CYP2C9 inhibition (CYP2C9 [8]): not time dependent | inhibition of CYP3A5 (CYP3A5): No inhibition | clinical inhibition of CYP2C8 (CYP2C8): strong inhibitor | increase in AUC0‐last, fed versus fasted ([9]; 900 mg SDD suspension): approximately 3.34 fold | increase in Cmax, fed versus fasted ([9]; 900 mg SDD suspension): approximately 2.45 fold | increase in AUC on administration with food ([9]; Discussion, dose and formulation not stated): 2.3 fold | half-life ([9]; human, plasma, oral, half‐life, single doses, healthy subjects): ~20 h
